For 2 molecules, Kd results are on record in publication PMC10970593, “Jozimine A2, a Dimeric Naphthylisoquinoline (NIQ) Alkaloid, Shows In Vitro Cytotoxic Effects against Leukemia Cells through NF-κB Inhibition” (International Journal of Molecular Sciences, 2024).

The assay addresses T1, NF-κB (human recombinant; p65 subunit used in docking) (Homo sapiens, UniProt Q04206).
T1 construct: gene RELA; human recombinant NF-κB protein, Sino Biological cat; No. 12054-H09E
Put plainly: microscale thermophoresis with labeled recombinant protein. The class given is binding. For orientation: In MST a laser heats a spot of the sample, and binding alters the fluorescence response.

Structures are written as SMILES. Where two headings read alike, the source gives them in different places.

As for `COc1cc(C)cc2c(-c3c(O)cc(O)c4c3C[C@@H](C)N[C@@H]4C)cc(-c3cc(-c4c(O)cc(O)c5c4C[C@@H](C)N[C@@H]5C)c4cc(C)cc(OC)c4c3O)c(O)c12` [michellamine B], the Kd is 2800 ± 94 nM. On to `COc1cccc2c(-c3ccc4c(c3O)[C@@H](C)N[C@H](C)C4)c(C)c(-c3c(C)c(-c4ccc5c(c4O)[C@@H](C)N[C@H](C)C5)c4cccc(OC)c4c3O)c(O)c12` [jozimine A2], for which, for the setting “read-out: Kd”, the Kd came out at 1660 ± 12 nM.

What is called Kd is the equilibrium constant for the complex coming apart.
